Results published in publication PMC6259751, “Investigating Spectrum of Biological Activity of 4- and 5-Chloro-2-hydroxy-N-[2-(arylamino)-1-alkyl-2-oxoethyl]benzamides” (Molecules, 2011).
≈ marks a conversion by molar mass, not a printed value. Where “and” joins values, the source holds several entries; their conditions need not be identical. Identical values can stand only once. Like-named read-outs stand apart in the source and are kept apart here.

Legend:
[1] = Lipophilicity determination by RP-HPLC (capacity factor k / log k); format: physicochemical; conditions: C18 column, MeOH 70% / H2O 30%, isocratic
Method: Hydrophobicities (log P/Clog P) of compounds 8 and 9 were calculated using two commercially available programs (ChemOffice Ultra 10.0 and ACD/LogP) and measured by means of RP-HPLC determination of capacity factors k with subsequent calculation of log k. The procedure was performed under isocratic conditions with methanol as an organic modifier in the mobile phase using an end-capped non-polar C18 stationary RP column. The results are shown in Table 1 and illustrated in Figure 1.
A Waters Alliance 2695 XE HPLC separation module and a Waters Photodiode Array Detector 2996 (Waters Corp., Milford, MA, USA) were used. A Symmetry® C18 5 μm, 4.6 × 250 mm, Part No. WAT054275 (Waters Corp., Milford, MA, USA) chromatographic column was used. The HPLC separation process was monitored by Empower™ 2 Chromatography Data Software, Waters 2009 (Waters Corp., Milford, MA, USA). A mixture of MeOH p.a. (70%) and H2O-HPLC – Mili-Q Grade (30%) was used as a mobile phase. The total flow of the column was 1.0 mL/min, injection volume, 30 μL, column temperature, 30 °C and sample temperature, 10 °C. The detection wavelength of 210 nm was chosen. The KI methanolic solution was used for the dead time (tD) determination. Retention times (tR) were measured in minutes. The capacity factors k were calculated using the Empower™ 2 Chromatography Data Software according to formula k = (tR - tD)/tD, where tR is the retention time of the solute, whereas tD denotes the dead time obtained using an unretained analyte. Log k, calculated from the capacity factor k, is used as the lipophilicity index converted to log P scale.

[2] = tested on: Mycobacterium tuberculosis MTB CNCTC My 331/88; assay: In vitro antimycobacterial evaluation; format: cell-based; conditions: IC90 value
[3] = tested on: Mycobacterium avium MA CNCTC My 330/88; assay: In vitro antimycobacterial evaluation; format: cell-based; conditions: IC90 value
[4] = tested on: Mycobacterium kansasii MK CNCTC My 235/80; assay: In vitro antimycobacterial evaluation; format: cell-based; conditions: IC90 value
Candida tropicalis 156 = assay: In vitro antifungal susceptibility testing (broth microdilution); format: cell-based; conditions: M27-A2 for yeasts, IC80 value
[5] = tested on: Trichophyton mentagrophytes 445; assay: as above; format: cell-based; conditions: M38-A for moulds, IC50 value, read-out: MIC TM
[6] = tested on: photosynthetic electron transport (PET) in spinach chloroplasts; assay: Inhibition of photosynthetic electron transport (PET) in spinach chloroplasts; format: biochemical, Spinacia oleracea L.; conditions: DCPIP photoreduction
Method: Chloroplasts were prepared from spinach (Spinacia oleracea L.) according to Masarovicova and Kralova. The inhibition of photosynthetic electron transport (PET) in spinach chloroplasts was determined spectrophotometrically (Genesys 6, Thermo Scientific, USA), using an artificial electron acceptor 2,6-dichlorophenol-indophenol (DCIPP) according to Kralova et al., and the rate of photosynthetic electron transport was monitored as a photoreduction of DCPIP. The measurements were carried out in phosphate buffer (0.02 mol/L, pH 7.2) containing sucrose (0.4 mol/L), MgCl2 (0.005 mol/L) and NaCl (0.015 mol/L). The chlorophyll content was 30 mg/L in these experiments and the samples were irradiated (~100 W/m^2) from 10 cm distance with a halogen lamp (250 W) using a 4 cm water filter to prevent warming of the samples. The studied compounds were dissolved in DMSO due to their limited water solubility. […] The inhibitory efficiency of the studied compounds was expressed by IC50 values, i.e. by molar concentration of the compounds causing 50% decrease in the oxygen evolution rate relative to the untreated control.

[7] = tested on: Staphylococcus aureus CCM 4516/08; assay: In vitro antibacterial susceptibility testing (broth microdilution); conditions: read-out: MIC SA
[8] = tested on: methicilin resistant Staphylococcus aureus H 5996/08; assay: as above
[9] = tested on: Staphylococcus epidermidis H 6966/08; assay: as above
[10] = tested on: Enterococcus sp. J 14365/08; assay: as above; conditions: read-out: MIC EF
[11] = H6966/08, 24 h, read-out: MIC SE
[12] = H6966/08, 48 h, read-out: MIC SE

| SMILES | log k [1] | MIC ([2]; 14h) [µM] | MIC ([2]; 21h) [µM] | MIC ([3]; 14h) [µM] | MIC ([3]; 21h) [µM] | MIC ([4]; 14h) [µM] | MIC ([4]; 21h) [µM] | MIC (Candida tropicalis 156; 24h) [µM] | MIC (Candida tropicalis 156; 48h) [µM] | MIC ([5]; 72h) [µM] | MIC ([5]; 120h) [µM] | IC50 [6] [µM] | MIC ([7]; CCM4516, 24 h) [µM] | MIC ([7]; CCM4516, 48 h) [µM] | MIC ([8]; MRSA, 24 h, read-out: MIC MRSA) [µM] | MIC ([8]; MRSA, 48 h, read-out: MIC MRSA) [µM] | MIC [9, 11] [µM] | MIC [9, 12] [µM] | MIC ([10]; SP.J14365/08, 24 h) [µM] | MIC ([10]; SP.J14365/08, 48 h) [µM] | further results |
| --- | --- | --- | --- | --- | --- | --- | --- | --- | --- | --- | --- | --- | --- | --- | --- | --- | --- | --- | --- | --- | --- |
| O=C(CNC(=O)c1cc(Cl)ccc1O)Nc1cccc(Cl)c1 [8a] | 0.2439 | 125 (≈ 42.4 µg/mL) | 125 (≈ 42.4 µg/mL) | 62.5 (≈ 21.2 µg/mL) | 62.5 (≈ 21.2 µg/mL) | 250 (≈ 84.8 µg/mL) | 250 (≈ 84.8 µg/mL) | 125 (≈ 42.4 µg/mL) | 125 (≈ 42.4 µg/mL) | 125 (≈ 42.4 µg/mL) | 125 (≈ 42.4 µg/mL) | 379 | > 250 | > 250 | > 250 | > 250 | > 250 | > 250 | > 250 | > 250 |  |
| CC(C)[C@H](NC(=O)c1cc(Cl)ccc1O)C(=O)Nc1cccc(Cl)c1 [8d] | 0.6124 | 32 (≈ 12.2 µg/mL) | 62.5 (≈ 23.8 µg/mL) | 125 (≈ 47.7 µg/mL) | 125 (≈ 47.7 µg/mL) | 62.5 (≈ 23.8 µg/mL) | 125 (≈ 47.7 µg/mL) | > 125 | > 125 | > 125 | > 125 | 13.8 | > 125 | > 125 | > 125 | > 125 | > 125 | > 125 | > 125 | > 125 |  |
| CC(C)[C@@H](NC(=O)c1cc(Cl)ccc1O)C(=O)Nc1cccc(Cl)c1 [8e] | 0.61 and 0.6114 | 32 (≈ 12.2 µg/mL) | 62.5 (≈ 23.8 µg/mL) | 62.5 (≈ 23.8 µg/mL) | 125 (≈ 47.7 µg/mL) | 62.5 (≈ 23.8 µg/mL) | 125 (≈ 47.7 µg/mL) | 15.6 (≈ 5.96 µg/mL) | 62.5 (≈ 23.8 µg/mL) | 125 (≈ 47.7 µg/mL) | 125 (≈ 47.7 µg/mL) | 20.4 | 15.6 (≈ 5.96 µg/mL) | 15.6 (≈ 5.96 µg/mL) | 31.2 (≈ 11.9 µg/mL) | 31.2 (≈ 11.9 µg/mL) | 31.2 (≈ 11.9 µg/mL) | 31.2 (≈ 11.9 µg/mL) | 62.5 (≈ 23.8 µg/mL) | 250 (≈ 95.3 µg/mL) |  |
| O=C(N[C@@H](Cc1ccccc1)C(=O)Nc1cccc(Cl)c1)c1cc(Cl)ccc1O [8f, N-{(1S)-1-benzyl-2-[(3-chlorophenyl)amino]-2-oxoethyl}-5-chloro-2-hydroxybenz-amide] | 0.70 and 0.7098 | 62.5 (≈ 26.8 µg/mL) | 125 (≈ 53.7 µg/mL) | 125 (≈ 53.7 µg/mL) | 250 (≈ 107 µg/mL) | 62.5 (≈ 26.8 µg/mL) | 125 (≈ 53.7 µg/mL) | 31.2 (≈ 13.4 µg/mL) | 125 (≈ 53.7 µg/mL) | 125 (≈ 53.7 µg/mL) | 125 (≈ 53.7 µg/mL) | 12.3 | > 500 | > 500 | > 500 | > 500 | > 500 | > 500 | > 500 | > 500 |  |
| O=C(N[C@@H](Cc1ccccc1)C(=O)Nc1ccc(Cl)cc1)c1cc(Cl)ccc1O [8k] | 0.7394 | 16 (≈ 6.87 µg/mL) | 16 (≈ 6.87 µg/mL) | 32 (≈ 13.7 µg/mL) | 32 (≈ 13.7 µg/mL) | 32 (≈ 13.7 µg/mL) | 62.5 (≈ 26.8 µg/mL) | 125 (≈ 53.7 µg/mL) | > 125 | 125 (≈ 53.7 µg/mL) | > 125 | 29.8 | > 500 | > 500 | > 500 | > 500 | > 500 | > 500 | > 500 | > 500 |  |
| CC(C)[C@H](NC(=O)c1cc(Cl)ccc1O)C(=O)Nc1ccc(Br)cc1 [8s] | 0.6709 | 62.5 (≈ 26.6 µg/mL) | 62.5 (≈ 26.6 µg/mL) | 62.5 (≈ 26.6 µg/mL) | 62.5 (≈ 26.6 µg/mL) | 62.5 (≈ 26.6 µg/mL) | 125 (≈ 53.2 µg/mL) | > 125 | > 125 | > 125 | > 125 | 26.2 | > 125 | > 125 | > 125 | > 125 | > 125 | > 125 | > 125 | > 125 |  |
| O=C(N[C@@H](Cc1ccccc1)C(=O)Nc1ccc(Br)cc1)c1cc(Cl)ccc1O [8u] | 0.7779 | 32 (≈ 15.2 µg/mL) | 32 (≈ 15.2 µg/mL) | 250 (≈ 118 µg/mL) | 250 (≈ 118 µg/mL) | 62.5 (≈ 29.6 µg/mL) | 125 (≈ 59.2 µg/mL) | 500 (≈ 237 µg/mL) | > 500 | 500 (≈ 237 µg/mL) | > 500 | 31.2 | > 125 | > 125 | > 125 | > 125 | > 125 | > 125 | > 125 | > 125 |  |
| C[C@@H](NC(=O)c1ccc(Cl)cc1O)C(=O)Nc1ccc(Cl)cc1 [9b, 4-Chloro-N-{(1R)-2-[(4-chlorophenyl)-amino]-1-methyl-2-oxoethyl}-2-hydroxy benzamide] | 0.4921 | 32 (≈ 11.3 µg/mL) | 62.5 (≈ 22.1 µg/mL) | 125 (≈ 44.2 µg/mL) | 125 (≈ 44.2 µg/mL) | 125 (≈ 44.2 µg/mL) | 125 (≈ 44.2 µg/mL) | 250 (≈ 88.3 µg/mL) | 250 (≈ 88.3 µg/mL) | 250 (≈ 88.3 µg/mL) | 250 (≈ 88.3 µg/mL) |  | 7.81 (≈ 2.76 µg/mL) | 7.81 (≈ 2.76 µg/mL) | 7.81 (≈ 2.76 µg/mL) | 7.81 (≈ 2.76 µg/mL) | 1.95 (≈ 0.689 µg/mL) | 1.95 (≈ 0.689 µg/mL) | 500 (≈ 177 µg/mL) | 500 (≈ 177 µg/mL) | MIC ([8]; read-out: activity against methicillin-resistant Staphylococcus aureus (MIC)): 7.81 µM (≈ 2.76 µg/mL); MIC ([9]; H6966/08, read-out: activity against S. epidermidis (MIC)): 1.95 µM (≈ 0.689 µg/mL) |
| CC(C)[C@@H](NC(=O)c1ccc(Cl)cc1O)C(=O)Nc1ccc(Cl)cc1 [9d] | 0.6832 | 62.5 (≈ 23.8 µg/mL) | 62.5 (≈ 23.8 µg/mL) | 62.5 (≈ 23.8 µg/mL) | 62.5 (≈ 23.8 µg/mL) | 62.5 (≈ 23.8 µg/mL) | 62.5 (≈ 23.8 µg/mL) | > 125 | > 125 | 7.81 (≈ 2.98 µg/mL) | 7.81 (≈ 2.98 µg/mL) |  | > 500 | > 500 | > 500 | > 500 | > 500 | > 500 | > 500 | > 500 |  |
| O=C(N[C@@H](Cc1ccccc1)C(=O)Nc1ccc(Cl)cc1)c1ccc(Cl)cc1O [9e] | 0.7540 | 32 (≈ 13.7 µg/mL) | 32 (≈ 13.7 µg/mL) | 32 (≈ 13.7 µg/mL) | 62.5 (≈ 26.8 µg/mL) | 32 (≈ 13.7 µg/mL) | 62.5 (≈ 26.8 µg/mL) | 125 (≈ 53.7 µg/mL) | 125 (≈ 53.7 µg/mL) | 125 (≈ 53.7 µg/mL) | 125 (≈ 53.7 µg/mL) |  | > 250 | > 250 | > 250 | > 250 | > 250 | > 250 | > 500 | > 500 |  |
| CC(C)[C@@H](NC(=O)c1ccc(Cl)cc1O)C(=O)Nc1ccc(Br)cc1 [9g] | 0.7353 |  |  |  |  |  |  |  |  |  |  | 24 |  |  |  |  |  |  |  |  |  |
| CC(C)[C@H](NC(=O)c1ccc(Cl)cc1O)C(=O)Nc1ccc(C(F)(F)F)cc1 [9h] | 0.7892 |  |  |  |  |  |  |  |  |  |  | 14.2 |  |  |  |  |  |  |  |  |  |
| Cc1ccc(NC(=O)[C@@H](NC(=O)c2ccc(Cl)cc2O)C(C)C)cc1 [9i] | 0.5902 |  |  |  |  |  |  |  |  |  |  | 37.3 |  |  |  |  |  |  |  |  |  |
| COc1ccc(NC(=O)[C@@H](NC(=O)c2ccc(Cl)cc2O)C(C)C)cc1 [9j] | 0.3623 |  |  |  |  |  |  |  |  |  |  | 35.7 |  |  |  |  |  |  |  |  |  |
